In US10975084B2, “KDM5 inhibitors” (Merck Sharp & Dohme Corp., priority 2016, dated 2021):

The compounds below were run against KDM5B (Homo sapiens (Human), UniProt Q9UGL1) (assay: KDM5B TR-FRET Enzyme Activity Assay). Conditions: LANCE TR-FRET; 5 nM full-length recombinant KDM5B; ten point titration 100000 nM to 5.08 nM.
Type: biochemical
Procedure, shortened: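 Full-length KDM5B from Sf21 cells (5 nM) was preincubated 30 min with compound in HEPES pH 7.3 buffer with ascorbate and 2 μM Fe(II). Reaction with 500 nM biotinylated H3K4Me3 peptide and 500 nM α-ketoglutarate ran 60 min. Product was detected by TR-FRET (Eu-anti-H3K4Me1-2/streptavidin-Dylight 650, 665/615 ratio); IC50 came from a 4-parameter fit.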

KDM5B, sequence (Q9UGL1 whole entry): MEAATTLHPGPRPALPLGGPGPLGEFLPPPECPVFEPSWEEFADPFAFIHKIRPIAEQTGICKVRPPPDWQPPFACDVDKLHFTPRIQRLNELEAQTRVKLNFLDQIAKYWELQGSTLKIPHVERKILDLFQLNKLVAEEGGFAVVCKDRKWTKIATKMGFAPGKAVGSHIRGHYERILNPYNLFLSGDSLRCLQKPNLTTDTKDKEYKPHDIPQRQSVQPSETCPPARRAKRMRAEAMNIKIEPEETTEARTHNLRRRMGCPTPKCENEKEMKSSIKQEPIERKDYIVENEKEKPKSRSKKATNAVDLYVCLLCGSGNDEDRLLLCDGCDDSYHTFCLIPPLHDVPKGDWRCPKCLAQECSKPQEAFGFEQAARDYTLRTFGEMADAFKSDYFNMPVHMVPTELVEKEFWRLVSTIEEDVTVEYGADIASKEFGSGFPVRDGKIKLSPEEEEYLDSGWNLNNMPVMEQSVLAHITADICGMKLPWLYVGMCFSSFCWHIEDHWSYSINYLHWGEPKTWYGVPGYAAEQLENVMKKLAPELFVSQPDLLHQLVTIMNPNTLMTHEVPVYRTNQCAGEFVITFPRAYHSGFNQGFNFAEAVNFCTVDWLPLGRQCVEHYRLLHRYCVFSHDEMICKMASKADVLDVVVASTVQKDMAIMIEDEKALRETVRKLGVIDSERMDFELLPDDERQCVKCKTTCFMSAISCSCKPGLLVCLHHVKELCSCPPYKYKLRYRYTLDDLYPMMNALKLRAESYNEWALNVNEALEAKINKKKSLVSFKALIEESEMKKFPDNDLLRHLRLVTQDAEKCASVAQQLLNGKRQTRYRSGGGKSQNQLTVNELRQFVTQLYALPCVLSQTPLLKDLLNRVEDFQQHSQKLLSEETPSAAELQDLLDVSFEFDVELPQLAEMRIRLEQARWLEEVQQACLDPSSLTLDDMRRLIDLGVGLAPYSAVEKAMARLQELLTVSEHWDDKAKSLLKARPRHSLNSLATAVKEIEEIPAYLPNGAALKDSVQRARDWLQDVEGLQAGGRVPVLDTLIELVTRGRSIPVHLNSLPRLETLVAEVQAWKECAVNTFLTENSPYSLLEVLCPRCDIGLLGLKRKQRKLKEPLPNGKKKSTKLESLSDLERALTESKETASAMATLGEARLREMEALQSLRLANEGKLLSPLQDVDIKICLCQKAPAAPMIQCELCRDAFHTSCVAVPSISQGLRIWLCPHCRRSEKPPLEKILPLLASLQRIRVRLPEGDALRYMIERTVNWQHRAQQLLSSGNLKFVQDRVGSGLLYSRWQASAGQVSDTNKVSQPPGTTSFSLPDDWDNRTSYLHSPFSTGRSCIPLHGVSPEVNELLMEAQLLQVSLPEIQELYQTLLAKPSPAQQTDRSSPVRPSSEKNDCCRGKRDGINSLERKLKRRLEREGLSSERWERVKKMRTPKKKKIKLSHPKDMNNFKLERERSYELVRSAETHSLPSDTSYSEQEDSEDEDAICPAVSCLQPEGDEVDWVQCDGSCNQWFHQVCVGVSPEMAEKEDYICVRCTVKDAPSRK

Point of comparison: `CC(C)c1c(-c2cnn(C(C)(C)C)c2)[nH]c2ncnn2c1=O` [Example 11-145, 5-(1-tert-butyl-1H-pyrazol-4-yl)-6-(1-methylethyl)[1,2,4]triazolo[1,5-a]pyrimidin-7(4H)-one], IC50 5.08 nM. Against it:
- CC(C)c1c(-c2cc(C3CC3)cs2)[nH]c2ncnn2c1=O [Example 11-143, 5-(4-cyclopropylthiophen-2-yl)-6-(1-methylethyl)[1,2,4]triazolo[1,5-a]pyrimidin-7(4H)-one] — 16-fold higher, 79.3 nM
- CC(C)c1c(-c2cc(-c3ccccc3)cs2)[nH]c2ncnn2c1=O [Example 11-144, 6-(1-methylethyl)-5-(4-phenylthiophen-2-yl)[1,2,4]triazolo[1,5-a]pyrimidin-7(4H)-one] — 15-fold higher, 76.2 nM
- CC(C)CCn1cc(-c2[nH]c3ncnn3c(=O)c2C(C)C)cn1 [Example 11-146, 5-[1-(3-methylbutyl)-1H-pyrazol-4-yl]-6-(1-methylethyl)[1,2,4]triazolo[1,5-a]pyrimidin-7(4H)-one] — within 1.5-fold, 5.22 nM
- CC(C)c1c(-c2cccs2)[nH]c2ncnn2c1=O [Example 11-147, 6-(1-methylethyl)-5-thiophen-2-yl[1,2,4]triazolo[1,5-a]pyrimidin-7(4H)-one] — 81-fold higher, 413 nM
- CC(C)c1c(-c2ccc(C(F)(F)CO)nc2)[nH]c2ncnn2c1=O [Example 12-2, 5-[6-(1,1-difluoro-2-hydroxyethyl)pyridin-3-yl]-6-(1-methylethyl)[1,2,4]triazolo[1,5-a]pyrimidin-7(4H)-one] — 6-fold higher, 30.7 nM
- CC(C)c1c(-c2cncc(CO)c2)[nH]c2ncnn2c1=O [Example 12-3, 5-[5-(hydroxymethyl)pyridin-3-yl]-6-(1-methylethyl)[1,2,4]triazolo[1,5-a]pyrimidin-7(4H)-one] — 4.4-fold higher, 22.5 nM
